Laboratory results as given in ChEMBL document CHEMBL3885881, “DrugMatrix”.

Species on record: Rattus norvegicus
Assay: DrugMatrix - Regimen: Daily Repeat
Type: toxicity, organism-based, Sprague-Dawley
Design: regimen Daily Repeat, gender Male, age 6-8 weeks
Conditions: in vivo, po, 740 mg/kg, route oral GAVAGE, dose level High, vehicle .5 % CMC; for ABSOLUTE BASOPHIL / ABSOLUTE EOSINOPHIL / ABSOLUTE LYMPHOCYTE / ABSOLUTE MONOCYTE / ABSOLUTE SEGMENTED NEUTROPHIL / BASOPHIL / EOSINOPHIL / ERYTHROCYTE COUNT / HEMATOCRIT / HEMOGLOBIN / LEUKOCYTE COUNT / LYMPHOCYTE / MEAN CORPUSCULAR HEMOGLOBIN / MEAN CORPUSCULAR HEMOGLOBIN CONCENTRATION / MEAN CORPUSCULAR VOLUME / MONOCYTE / NEUTROPHIL / NUCLEATED RED BLOOD CELLS / PLATELET COUNT: tissue Blood; for ALANINE AMINOTRANSFERASE / ALBUMIN / ALKALINE PHOSPHATASE / ASPARTATE AMINOTRANSFERASE / BLOOD UREA NITROGEN / CARBON DIOXIDE / CHLORIDE / CHOLESTEROL / CREATININE / GLUCOSE / LACTATE DEHYDROGENASE / LIPASE / PHOSPHORUS / POTASSIUM / SODIUM / TOTAL BILIRUBIN / TOTAL PROTEIN / URIC ACID: tissue Plasma

Q: Which results are given for `COc1ccccc1[N+](=O)[O-]` [2-NITROANISOLE]?
A: ABSOLUTE BASOPHIL (72 h, time 3 day): 0 CELLS/uL; ABSOLUTE EOSINOPHIL (72 h, time 3 day): 109.33 CELLS/uL; ABSOLUTE LYMPHOCYTE (72 h, time 3 day): 13522 CELLS/uL; ABSOLUTE MONOCYTE (72 h, time 3 day): 1089.33 CELLS/uL; ABSOLUTE SEGMENTED NEUTROPHIL (72 h, time 3 day): 2512.67 CELLS/uL; BASOPHIL (72 h, time 3 day): 0%; EOSINOPHIL (72 h, time 3 day): 0.67%; ERYTHROCYTE COUNT (72 h, time 3 day): 5.38 x10E6/uL; HEMATOCRIT (72 h, time 3 day): 32.17%; HEMOGLOBIN (72 h, time 3 day): 11.9 G/DL; LEUKOCYTE COUNT (72 h, time 3 day): 17.23 x10E3/uL; LYMPHOCYTE (72 h, time 3 day): 78.67%; MEAN CORPUSCULAR HEMOGLOBIN (72 h, time 3 day): 22.1 pg; MEAN CORPUSCULAR HEMOGLOBIN CONCENTRATION (72 h, time 3 day): 37 G/DL; MEAN CORPUSCULAR VOLUME (72 h, time 3 day): 59.83 fL; MONOCYTE (72 h, time 3 day): 6.33%; NEUTROPHIL (72 h, time 3 day): 14.33%; NUCLEATED RED BLOOD CELLS (72 h, time 3 day): 0 /100WBC; PLATELET COUNT (72 h, time 3 day): 1241.67 x10E3/uL; ALANINE AMINOTRANSFERASE (72 h, time 3 day): 84.67 u/L; ALBUMIN (72 h, time 3 day): 4.37 G/DL; ALKALINE PHOSPHATASE (72 h, time 3 day): 448.33 u/L; ASPARTATE AMINOTRANSFERASE (72 h, time 3 day): 103.67 u/L; BLOOD UREA NITROGEN (72 h, time 3 day): 14 mg/dL; CARBON DIOXIDE (72 h, time 3 day): 22.67 mmol/L; CHLORIDE (72 h, time 3 day): 101.67 MEQ/L; CHOLESTEROL (72 h, time 3 day): 95.67 mg/dL; CREATININE (72 h, time 3 day): 0.18 mg/dL; GLUCOSE (72 h, time 3 day): 145 mg/dL; LACTATE DEHYDROGENASE (72 h, time 3 day): 412.67 u/L; LIPASE (72 h, time 3 day): 9.33 u/L; PHOSPHORUS (72 h, time 3 day): 11.6 mg/dL; POTASSIUM (72 h, time 3 day): 6.07 MEQ/L; SODIUM (72 h, time 3 day): 142.23 MEQ/L; TOTAL BILIRUBIN (72 h, time 3 day): 0.23 mg/dL; TOTAL PROTEIN (72 h, time 3 day): 5.93 G/DL; URIC ACID (72 h, time 3 day): 1.7 mg/dL; ABSOLUTE BASOPHIL (120 h, time 5 day): 0 CELLS/uL; ABSOLUTE EOSINOPHIL (120 h, time 5 day): 0 CELLS/uL; ABSOLUTE LYMPHOCYTE (120 h, time 5 day): 12322.33 CELLS/uL; ABSOLUTE MONOCYTE (120 h, time 5 day): 57 CELLS/uL; ABSOLUTE SEGMENTED NEUTROPHIL (120 h, time 5 day): 3254 CELLS/uL; BASOPHIL (120 h, time 5 day): 0%; EOSINOPHIL (120 h, time 5 day): 0%; ERYTHROCYTE COUNT (120 h, time 5 day): 5.04 x10E6/uL; HEMATOCRIT (120 h, time 5 day): 30.5%; HEMOGLOBIN (120 h, time 5 day): 10.83 G/DL; LEUKOCYTE COUNT (120 h, time 5 day): 15.63 x10E3/uL; LYMPHOCYTE (120 h, time 5 day): 79%; MEAN CORPUSCULAR HEMOGLOBIN (120 h, time 5 day): 21.5 pg; MEAN CORPUSCULAR HEMOGLOBIN CONCENTRATION (120 h, time 5 day): 35.5 G/DL; MEAN CORPUSCULAR VOLUME (120 h, time 5 day): 60.6 fL; MONOCYTE (120 h, time 5 day): 0.33%; NEUTROPHIL (120 h, time 5 day): 20.67%; NUCLEATED RED BLOOD CELLS (120 h, time 5 day): 1 /100WBC; PLATELET COUNT (120 h, time 5 day): 1041 x10E3/uL; ALANINE AMINOTRANSFERASE (120 h, time 5 day): 76.67 u/L; ALBUMIN (120 h, time 5 day): 4.67 G/DL; ALKALINE PHOSPHATASE (120 h, time 5 day): 401.67 u/L; ASPARTATE AMINOTRANSFERASE (120 h, time 5 day): 101 u/L; BLOOD UREA NITROGEN (120 h, time 5 day): 14.33 mg/dL; CARBON DIOXIDE (120 h, time 5 day): 33 mmol/L; CHLORIDE (120 h, time 5 day): 98.33 MEQ/L; CHOLESTEROL (120 h, time 5 day): 92.33 mg/dL; CREATININE (120 h, time 5 day): 0.15 mg/dL; GLUCOSE (120 h, time 5 day): 127 mg/dL; LACTATE DEHYDROGENASE (120 h, time 5 day): 114.33 u/L; LIPASE (120 h, time 5 day): 9.67 u/L; PHOSPHORUS (120 h, time 5 day): 12.23 mg/dL; POTASSIUM (120 h, time 5 day): 6 MEQ/L; SODIUM (120 h, time 5 day): 144.43 MEQ/L; TOTAL BILIRUBIN (120 h, time 5 day): 0.23 mg/dL; TOTAL PROTEIN (120 h, time 5 day): 6.53 G/DL; URIC ACID (120 h, time 5 day): 0.9 mg/dL; ABSOLUTE BASOPHIL ([…], time 14 day): 0 CELLS/uL; ABSOLUTE EOSINOPHIL ([…], time 14 day): 157.6 CELLS/uL; ABSOLUTE LYMPHOCYTE ([…], time 14 day): 18755.2 CELLS/uL; ABSOLUTE MONOCYTE ([…], time 14 day): 504.8 CELLS/uL; ABSOLUTE SEGMENTED NEUTROPHIL ([…], time 14 day): 3782.4 CELLS/uL; BASOPHIL ([…], time 14 day): 0%; EOSINOPHIL ([…], time 14 day): 0.8%; ERYTHROCYTE COUNT ([…], time 14 day): 4.9 x10E6/uL; HEMATOCRIT ([…], time 14 day): 34.42%; HEMOGLOBIN ([…], time 14 day): 12.78 G/DL; LEUKOCYTE COUNT ([…], time 14 day): 23.2 x10E3/uL; LYMPHOCYTE ([…], time 14 day): 80.8%; MEAN CORPUSCULAR HEMOGLOBIN ([…], time 14 day): 26.14 pg; MEAN CORPUSCULAR HEMOGLOBIN CONCENTRATION ([…], time 14 day): 37.14 G/DL; MEAN CORPUSCULAR VOLUME ([…], time 14 day): 70.28 fL; MONOCYTE ([…], time 14 day): 2.2%; NEUTROPHIL ([…], time 14 day): 16.2%; NUCLEATED RED BLOOD CELLS ([…], time 14 day): 0 /100WBC; PLATELET COUNT ([…], time 14 day): 1231 x10E3/uL; ALANINE AMINOTRANSFERASE ([…], time 14 day): 73.4 u/L; ALBUMIN ([…], time 14 day): 4.84 G/DL; ALKALINE PHOSPHATASE ([…], time 14 day): 271.2 u/L; ASPARTATE AMINOTRANSFERASE ([…], time 14 day): 85.6 u/L; BLOOD UREA NITROGEN ([…], time 14 day): 17 mg/dL; CARBON DIOXIDE ([…], time 14 day): 31.6 mmol/L; CHLORIDE ([…], time 14 day): 99.2 MEQ/L; CHOLESTEROL ([…], time 14 day): 77 mg/dL; CREATININE ([…], time 14 day): 0.21 mg/dL; GLUCOSE ([…], time 14 day): 125 mg/dL; LACTATE DEHYDROGENASE ([…], time 14 day): 356.6 u/L; LIPASE ([…], time 14 day): 9 u/L; PHOSPHORUS ([…], time 14 day): 11.68 mg/dL; POTASSIUM ([…], time 14 day): 6.84 MEQ/L; SODIUM ([…], time 14 day): 142.78 MEQ/L; TOTAL BILIRUBIN ([…], time 14 day): 0.28 mg/dL; TOTAL PROTEIN ([…], time 14 day): 6.82 G/DL; URIC ACID ([…], time 14 day): 1.6 mg/dL
